Data on 7 compounds can be found in patent US20190330224A1, “ACC INHIBITORS AND USES THEREOF” (Gilead Apollo, LLC, priority 2015, published 2019).

In general, IC50 refers to the concentration that gives 50% inhibition. Broadly, the MIC is the smallest concentration in the dilution series that meets the test's criterion for growth inhibition.

Experiment [1] has as its target Fungal ACC2 (UniProt Q00955). The settings on record: read-out: Fungal ACC2 (IC50, in vitro ACC2 inhibition).
For experiment [2], the system named is Septoria tritici (St). Description: Growth inhibition assay of fungal pathogens, St. In kind it is cell-based. To be noted: Zymoseptoria tritici; 48 hours; read-out: Concentration at 90% Inhibition, St. The essentials: (§1)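 Spores in 17% V8 liquid medium were exposed to compound at final 50, 10 and 2 ppm or 2, 0.4 and 0.08 ppm with 2% DMSO. After 48 h, OD600 (blank-subtracted) and visual ratings were compared with the 2% DMSO control to give percent growth inhibition.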

The test system of experiment [3] is Rhizoctonia solani (Rs). Description: Growth inhibition assay of fungal pathogens, Rs. It counts as cell-based. To be noted: 48 hours, read-out: Concentration at 90% Inhibition, Rs.
Experiment [4] has as its system Fusarium virguliforme (Fv). Description: Growth inhibition assay of fungal pathogens, Fv. It counts as cell-based. The settings on record: 48 hours, read-out: Concentration at 90% Inhibition, Fv. The essentials: as §1
For experiment [5], the system named is Fusarium moniliforme (Fm). Description: Growth inhibition assay of fungal pathogens, Fm. The settings on record: Fusarium verticillioides; 48 hours; read-out: Concentration at 90% Inhibition, Fm. In kind it is cell-based. The essentials:
as §1

Experiment [6] concerns Blumeria graminis f sp. hordei. Kind of experiment: Foliar protection test, barley powdery mildew control. In kind it is in vivo, Blumeria graminis f sp. hordei on Hordeum vulgare cv. Perry. The settings on record: 168 h, compound concentration 50 ppm, foliar spray, evaluated 7 days after inoculation, read-out: Barley Powdery Mildew Control at 50 ppm. The essentials:
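Barley cv. Perry at first true leaf (6 days) sprayed to wetness on both leaf sides with compound in 5% acetone/0.005% Tween 80, typically at 200, 100, 50, 10 or 2 ppm. Inoculated 24 h later by shaking spores from colonized plants; kept at 20-22 °C, 70% RH. Mildew colonization scored 7 days later as percent control.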

For experiment [7], the target named is Human ACC2 (Homo sapiens, UniProt O00763). Description: In vitro ACC2 inhibition assay (ADP-Glo), human ACC2. It counts as biochemical. The settings on record: 5 nM ACC2, 20 μM ATP, 20 μM acetyl-CoA. Background: In ADP-Glo the light output rises with the ADP produced.
Sequence of Human ACC2 (O00763 whole entry): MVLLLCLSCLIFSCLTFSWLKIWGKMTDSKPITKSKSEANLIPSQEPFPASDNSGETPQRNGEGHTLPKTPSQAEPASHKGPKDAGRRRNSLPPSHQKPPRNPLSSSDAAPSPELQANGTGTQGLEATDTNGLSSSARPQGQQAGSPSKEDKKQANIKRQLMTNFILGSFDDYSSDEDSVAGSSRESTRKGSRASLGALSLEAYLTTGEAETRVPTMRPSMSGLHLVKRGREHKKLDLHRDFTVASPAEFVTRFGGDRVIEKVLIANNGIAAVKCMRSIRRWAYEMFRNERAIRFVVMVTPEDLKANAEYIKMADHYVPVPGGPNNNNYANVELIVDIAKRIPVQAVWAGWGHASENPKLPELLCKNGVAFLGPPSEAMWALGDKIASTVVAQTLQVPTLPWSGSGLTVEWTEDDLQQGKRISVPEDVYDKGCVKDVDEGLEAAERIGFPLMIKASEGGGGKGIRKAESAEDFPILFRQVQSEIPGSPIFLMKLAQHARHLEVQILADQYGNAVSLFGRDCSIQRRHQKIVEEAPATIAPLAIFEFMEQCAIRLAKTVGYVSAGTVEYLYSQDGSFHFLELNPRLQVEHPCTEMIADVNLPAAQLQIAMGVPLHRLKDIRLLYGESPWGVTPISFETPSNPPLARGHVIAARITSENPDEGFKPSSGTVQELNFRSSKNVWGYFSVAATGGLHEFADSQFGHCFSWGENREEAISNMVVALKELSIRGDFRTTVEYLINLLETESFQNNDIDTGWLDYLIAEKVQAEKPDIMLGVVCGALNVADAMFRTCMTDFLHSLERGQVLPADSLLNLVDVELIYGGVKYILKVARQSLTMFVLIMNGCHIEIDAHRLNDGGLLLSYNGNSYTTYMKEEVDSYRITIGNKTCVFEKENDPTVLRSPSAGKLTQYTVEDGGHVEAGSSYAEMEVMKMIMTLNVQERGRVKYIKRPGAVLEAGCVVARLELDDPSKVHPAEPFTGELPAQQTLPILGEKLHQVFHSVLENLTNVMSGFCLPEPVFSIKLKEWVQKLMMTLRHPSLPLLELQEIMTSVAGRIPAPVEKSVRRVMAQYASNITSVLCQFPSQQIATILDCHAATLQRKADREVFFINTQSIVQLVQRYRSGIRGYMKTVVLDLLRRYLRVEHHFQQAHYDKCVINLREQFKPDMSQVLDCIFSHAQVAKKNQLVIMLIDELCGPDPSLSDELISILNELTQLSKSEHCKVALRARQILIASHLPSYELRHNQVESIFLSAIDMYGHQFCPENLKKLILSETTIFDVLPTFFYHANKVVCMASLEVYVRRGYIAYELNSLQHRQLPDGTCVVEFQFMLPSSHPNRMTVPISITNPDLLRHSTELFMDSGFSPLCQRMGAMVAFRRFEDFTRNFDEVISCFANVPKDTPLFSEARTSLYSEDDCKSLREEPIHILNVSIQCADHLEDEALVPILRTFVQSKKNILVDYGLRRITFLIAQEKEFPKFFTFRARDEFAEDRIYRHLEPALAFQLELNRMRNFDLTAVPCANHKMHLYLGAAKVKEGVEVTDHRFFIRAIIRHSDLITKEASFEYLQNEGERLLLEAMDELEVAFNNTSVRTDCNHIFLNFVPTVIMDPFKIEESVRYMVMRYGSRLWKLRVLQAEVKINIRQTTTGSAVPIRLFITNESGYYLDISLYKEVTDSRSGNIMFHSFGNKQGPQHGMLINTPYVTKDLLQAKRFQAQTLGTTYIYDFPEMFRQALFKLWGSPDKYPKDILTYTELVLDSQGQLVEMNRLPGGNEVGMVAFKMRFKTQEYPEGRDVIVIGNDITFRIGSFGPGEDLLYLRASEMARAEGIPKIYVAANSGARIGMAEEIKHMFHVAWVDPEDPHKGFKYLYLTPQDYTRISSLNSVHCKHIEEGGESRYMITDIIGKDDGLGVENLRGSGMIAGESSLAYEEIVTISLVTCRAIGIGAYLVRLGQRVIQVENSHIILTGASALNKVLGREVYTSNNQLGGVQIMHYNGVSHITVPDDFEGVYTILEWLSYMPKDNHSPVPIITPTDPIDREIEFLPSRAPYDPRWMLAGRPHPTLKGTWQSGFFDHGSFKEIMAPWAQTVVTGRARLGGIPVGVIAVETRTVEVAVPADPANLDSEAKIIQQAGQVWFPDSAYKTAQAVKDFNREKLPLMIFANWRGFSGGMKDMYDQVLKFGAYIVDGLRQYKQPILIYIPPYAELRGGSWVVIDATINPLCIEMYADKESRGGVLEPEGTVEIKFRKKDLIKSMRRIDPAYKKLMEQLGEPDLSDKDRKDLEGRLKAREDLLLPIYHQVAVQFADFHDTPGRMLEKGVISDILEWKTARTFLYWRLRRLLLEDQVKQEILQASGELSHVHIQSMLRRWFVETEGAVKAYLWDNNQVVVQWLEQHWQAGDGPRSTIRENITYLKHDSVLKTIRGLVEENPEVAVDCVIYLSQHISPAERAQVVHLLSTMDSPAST
The test system of experiment [8] is Diplodia maydis (Dm). Kind of experiment: Growth inhibition assay of fungal pathogens, Dm. In kind it is cell-based. To be noted: Stenocarpella maydis; 48 hours; read-out: Concentration at 90% Inhibition, Dm. The essentials:
as §1

Experiment [9] concerns Collectotrichum graminicola (Cg). Kind of experiment: Growth inhibition assay of fungal pathogens, Cg. In kind it is cell-based. The settings on record: 48 hours; read-out: Concentration at 90% Inhibition, Cg. Put shortly:
as §1

The test system of experiment [10] is Phytophthora capsici (Pc). Description: Growth inhibition assay of fungal pathogens, Pc. To be noted: 48 hours, read-out: Concentration at 90% Inhibition, Pc. In kind it is cell-based. The essentials: as §1
For experiment [11] the following is noted: compound concentration 10 ppm, foliar spray, evaluated 7 days after inoculation.
In experiment [12] the test system is Botrtyis cinerea (Bc). Kind of experiment: Growth inhibition assay of fungal pathogens, Bc. It counts as cell-based. To be noted: 48 hours; read-out: Concentration at 90% Inhibition, Bc. The essentials:
as §1

The subject of experiment [13] is C. albicans ATCC 90028. Description: Anti-Fungal Activity Assay (broth microtiter MIC), C. albicans. In kind it is cell-based, Candida albicans. To be noted: Candida albicans, ATCC90028, 48 h, 3 replicates; MIC recorded at 48 h; read-out: MIC C. albicans ATCC 90028. The essentials: (§2)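 Susceptibility testing used direct colony suspensions in RPMI 1640+MOPS from Sabouraud dextrose agar grown at 35° C. Endpoints were visual MICs at 48 h under CLSI M27-A3 microtiter conditions, plus a 24 h reading for soraphen.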

Experiment [14] has as its system C. krusei ATCC 6258. Kind of experiment: Anti-Fungal Activity Assay (broth microtiter MIC), C. krusei. It counts as cell-based, Candida krusei. The settings on record: Pichia kudriavzevii, ATCC6258, 48 h, 3 replicates; MIC recorded at 48 h; read-out: MIC C. krusei ATCC 6258. Put shortly: as §2
Experiment [15] has as its system C. parapsilosis ATCC 22019. Description: Anti-Fungal Activity Assay (broth microtiter MIC), C. parapsilosis. It counts as cell-based, Candida parapsilosis. The settings on record: Lodderomyces parapsilosis, ATCC22019, 48 h, 3 replicates; MIC recorded at 48 h; read-out: MIC C. parapsilosis ATCC 22019. The essentials: as §2

SMILES strings stand for the structures. ≈ marks a conversion by molar mass, not a printed value.

Sequence of Fungal ACC2 (Q00955 whole entry): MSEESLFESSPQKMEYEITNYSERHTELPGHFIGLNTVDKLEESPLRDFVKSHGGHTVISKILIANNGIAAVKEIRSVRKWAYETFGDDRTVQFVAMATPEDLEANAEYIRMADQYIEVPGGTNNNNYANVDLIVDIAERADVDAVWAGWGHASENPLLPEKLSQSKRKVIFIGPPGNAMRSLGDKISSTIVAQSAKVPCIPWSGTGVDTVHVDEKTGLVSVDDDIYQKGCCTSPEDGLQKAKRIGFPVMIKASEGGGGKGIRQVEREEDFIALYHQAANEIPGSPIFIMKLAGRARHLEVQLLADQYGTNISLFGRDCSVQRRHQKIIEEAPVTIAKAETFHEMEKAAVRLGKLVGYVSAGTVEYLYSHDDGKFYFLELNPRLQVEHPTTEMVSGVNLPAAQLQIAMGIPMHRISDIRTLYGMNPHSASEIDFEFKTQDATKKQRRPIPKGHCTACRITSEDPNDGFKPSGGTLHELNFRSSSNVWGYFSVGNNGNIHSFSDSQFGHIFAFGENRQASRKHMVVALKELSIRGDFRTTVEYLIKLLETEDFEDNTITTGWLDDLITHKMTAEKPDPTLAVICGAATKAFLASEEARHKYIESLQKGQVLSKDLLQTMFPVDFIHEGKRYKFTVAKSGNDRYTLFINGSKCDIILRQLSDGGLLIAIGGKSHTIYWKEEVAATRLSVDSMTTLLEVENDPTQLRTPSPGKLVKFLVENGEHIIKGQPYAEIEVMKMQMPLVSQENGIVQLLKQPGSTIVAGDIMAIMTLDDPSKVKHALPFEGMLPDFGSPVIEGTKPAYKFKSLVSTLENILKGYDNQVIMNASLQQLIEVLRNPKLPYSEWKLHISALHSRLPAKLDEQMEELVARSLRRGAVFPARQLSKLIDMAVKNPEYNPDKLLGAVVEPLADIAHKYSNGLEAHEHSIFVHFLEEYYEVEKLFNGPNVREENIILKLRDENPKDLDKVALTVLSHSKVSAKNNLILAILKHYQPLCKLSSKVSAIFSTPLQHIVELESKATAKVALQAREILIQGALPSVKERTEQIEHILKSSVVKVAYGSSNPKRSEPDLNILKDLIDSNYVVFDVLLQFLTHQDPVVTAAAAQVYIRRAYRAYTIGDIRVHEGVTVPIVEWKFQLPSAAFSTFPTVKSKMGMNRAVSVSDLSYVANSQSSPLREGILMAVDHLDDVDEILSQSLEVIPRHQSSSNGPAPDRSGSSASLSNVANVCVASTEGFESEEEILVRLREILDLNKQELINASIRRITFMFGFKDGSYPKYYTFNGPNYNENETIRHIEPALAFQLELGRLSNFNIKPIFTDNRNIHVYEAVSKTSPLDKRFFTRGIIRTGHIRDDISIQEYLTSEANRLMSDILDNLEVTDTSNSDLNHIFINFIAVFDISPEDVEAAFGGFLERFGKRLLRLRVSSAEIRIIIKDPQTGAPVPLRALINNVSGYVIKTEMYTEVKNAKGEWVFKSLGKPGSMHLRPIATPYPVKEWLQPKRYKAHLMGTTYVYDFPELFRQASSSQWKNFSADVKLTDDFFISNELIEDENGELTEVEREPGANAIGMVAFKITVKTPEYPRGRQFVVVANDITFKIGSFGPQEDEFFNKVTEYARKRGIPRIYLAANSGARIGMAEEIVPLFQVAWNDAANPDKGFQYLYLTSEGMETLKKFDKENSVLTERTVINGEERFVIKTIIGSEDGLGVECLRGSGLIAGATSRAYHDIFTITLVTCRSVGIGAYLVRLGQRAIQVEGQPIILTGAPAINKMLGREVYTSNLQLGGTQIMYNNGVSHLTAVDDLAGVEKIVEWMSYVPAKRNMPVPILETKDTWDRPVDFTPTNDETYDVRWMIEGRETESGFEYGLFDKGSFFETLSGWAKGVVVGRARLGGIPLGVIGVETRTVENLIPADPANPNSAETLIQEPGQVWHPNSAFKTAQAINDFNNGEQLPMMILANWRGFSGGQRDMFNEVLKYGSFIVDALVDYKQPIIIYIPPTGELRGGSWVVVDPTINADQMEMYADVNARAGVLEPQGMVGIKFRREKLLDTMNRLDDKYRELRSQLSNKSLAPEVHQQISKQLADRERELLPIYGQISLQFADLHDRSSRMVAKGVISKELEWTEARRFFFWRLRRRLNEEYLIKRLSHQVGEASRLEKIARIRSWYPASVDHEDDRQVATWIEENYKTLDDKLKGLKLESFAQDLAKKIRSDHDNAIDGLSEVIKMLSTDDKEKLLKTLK

Consider `COCCO[C@@H](Cn1c(=O)n([C@H]2CCN(C)C2=O)c(=O)c2c(C)c(-n3nccn3)sc21)c1cc(F)ccc1OC` [Compound I-27, 1-((R)-2-(5-fluoro-2-methoxyphenyl)-2-(2-methoxy-ethoxy)ethyl)-5-methyl-3-((S)-1-methyl-2-oxopyrrolidin-3-yl)-6-(2H-1,2,3-triazol-2-yl)thieno[2,3-d]pyrimidine-2,4(1H,3H)-dione], for which the values for the 50% inhibitory concentration (IC50) in experiment [1] and in experiment [7] were 2 to 10 nM and 10 to 100 nM, respectively. Besides, the IC90 in experiment [2] is greater than 50 µg/mL; in experiment [3] it was greater than 50 µg/mL; in [4], 10 µg/mL (≈ 17.5 µM); in experiment [5] it was 2 µg/mL (≈ 3.49 µM); in experiment [8], greater than 50 µg/mL; in experiment [9], greater than 50 µg/mL. The IC90 in experiment [10] is greater than 50 µg/mL; in experiment [12] it was 2 µg/mL (≈ 3.49 µM). In experiment [6], the pest or weed control at 50 ppm lay within 50 to 69%. Moreover, the “Barley Powdery Mildew Control at 10 ppm” value in experiment [11] is reported as “D (provided a compound having <25% control of barley powdery mildew)”. Moreover, the MIC in experiment [13], in experiment [14] and in experiment [15] was 2.1 to 4 µg/mL (≈ 3.67 to 6.99 µM) each time.
As to `COCCO[C@@H](Cn1c(=O)n([C@@H]2CCN(C)C2=O)c(=O)c2c(C)c(-n3nccn3)sc21)c1cc(F)ccc1OC` [Compound I-28, 1-((R)-2-(5-fluoro-2-methoxyphenyl)-2-(2-methoxy-ethoxy)ethyl)-5-methyl-3-((R)-1-methyl-2-oxopyrrolidin-3-yl)-6-(2H-1,2,3-triazol-2-yl)thieno[2,3-d]pyrimidine-2,4(1H, 3H)-dione], the IC50 in experiment [1] is 2 to 10 nM; in [7], 10 to 100 nM. In addition, the IC90 in experiment [2] was greater than 50 µg/mL; in experiment [3], 10 µg/mL (≈ 17.5 µM); in experiment [4], greater than 50 µg/mL; in experiment [5], 2 µg/mL (≈ 3.49 µM); in experiment [8] it was greater than 50 µg/mL; in [9] it was greater than 50 µg/mL. The values for the IC90 in experiment [10] and in [12] were greater than 50 µg/mL and 2 µg/mL (≈ 3.49 µM), respectively. Besides, in [6], the pest or weed control at 50 ppm is greater than 85%. The “Barley Powdery Mildew Control at 10 ppm” value in experiment [11] is “A (provided a compound having from 70% to 84% control of barley powdery mildew)”. The MIC in experiment [13], in experiment [14] and in [15] was 2.1 to 4 µg/mL (≈ 3.67 to 6.99 µM) throughout.
With `COCCO[C@@H](Cn1c(=O)n([C@H]2CCCNC2=O)c(=O)c2c(C)c(-n3nccn3)sc21)c1cc(F)ccc1OC` [Compound I-29, 1-((R)-2-(5-fluoro-2-methoxyphenyl)-2-(2-methoxy-ethoxy)ethyl)-5-methyl-3-((S)-2-oxopiperidin-3-yl)-6-(2H-1,2,3-triazol-2-yl)thieno[2,3-d]pyrimidine-2,4(1H,3H)-dione], the IC50 is 0.7 to 2 nM in experiment [1] and 10 to 100 nM in experiment [7]. Besides, the IC90 was greater than 50 µg/mL in experiment [2]; greater than 50 µg/mL in [3]; greater than 50 µg/mL in experiment [4]; 10 µg/mL (≈ 17.5 µM) in experiment [5]; greater than 50 µg/mL in [8]; greater than 50 µg/mL in [9]. Further, the IC90 was greater than 50 µg/mL in experiment [10] and 10 µg/mL (≈ 17.5 µM) in experiment [12]. Moreover, in experiment [6], the pest or weed control at 50 ppm is 70 to 84%. In [11], the “Barley Powdery Mildew Control at 10 ppm” value is reported as “C (provided a compound having from 25 to 49% control of barley powdery mildew)”. Also, the MIC in experiment [13], in [14] and in [15] was 2.1 to 4 µg/mL (≈ 3.67 to 6.99 µM) in each case.
Take `COCCO[C@@H](Cn1c(=O)n([C@@H]2CCCNC2=O)c(=O)c2c(C)c(-n3nccn3)sc21)c1cc(F)ccc1OC` [Compound I-30, 1-((R)-2-(5-fluoro-2-methoxyphenyl)-2-(2-methoxy-ethoxy)ethyl)-5-methyl-3-((R)-2-oxopiperidin-3-yl)-6-(2H-1,2,3-triazol-2-yl)thieno[2,3-d]pyrimidine-2,4(1H,3H)-dione]: the IC50 in [1] lay in the range of 0.7 to 2 nM; in [7], 10 to 100 nM. Further, the IC90 in [2], in experiment [3], in [4], in experiment [5], in experiment [8] and in experiment [9] was greater than 50 µg/mL in each case. Besides, the IC90 in [10] was greater than 50 µg/mL; in experiment [12] it was 10 µg/mL (≈ 17.5 µM). Further, in experiment [6], the pest or weed control at 50 ppm is 50 to 69%. Also, the “Barley Powdery Mildew Control at 10 ppm” value in [11] is recorded as “D (provided a compound having <25% control of barley powdery mildew)”. For the same compound, the MIC in experiment [13], in experiment [14] and in experiment [15] was 2.1 to 4 µg/mL (≈ 3.67 to 6.99 µM) throughout.
On to `COCCO[C@@H](Cn1c(=O)n([C@H]2CCCN(C)C2=O)c(=O)c2c(C)c(-n3nccn3)sc21)c1cc(F)ccc1OC` [Compound I-31, 1-((R)-2-(5-fluoro-2-methoxyphenyl)-2-(2-methoxy-ethoxy)ethyl)-5-methyl-3-((S)-1-methyl-2-oxopiperidin-3-yl)-6-(2H-1,2,3-triazol-2-yl)thieno[2,3-d]pyrimidine-2,4(1H,3H)-dione], for which the figures for the concentration for half-maximal inhibition (IC50) in experiment [1] and in experiment [7] were 0.7 to 2 nM and 10 to 100 nM, respectively. Also, the IC90 in [2] was greater than 50 µg/mL; in experiment [3] it was greater than 50 µg/mL; in experiment [4] it was 2 µg/mL (≈ 3.41 µM); in [5] it was 2 µg/mL (≈ 3.41 µM); in [8] it was greater than 50 µg/mL; in experiment [9], greater than 50 µg/mL. For the same compound, the IC90 in experiment [10] is greater than 50 µg/mL; in [12], 10 µg/mL (≈ 17 µM). Also, the pest or weed control at 50 ppm in experiment [6] lay in the range of 70 to 84%. Also, in [11], the “Barley Powdery Mildew Control at 10 ppm” value was “B (provided a compound having from 50 to 69% control of barley powdery mildew)”. The MIC in [13], in experiment [14] and in [15] was 2.1 to 4 µg/mL (≈ 3.58 to 6.82 µM) in each case.
For the compound `COCCO[C@@H](Cn1c(=O)n([C@H]2CCNC2=O)c(=O)c2c(C)c(-n3cccn3)sc21)c1cc(F)ccc1OC` [Compound I-41, 1-((R)-2-(5-fluoro-2-methoxyphenyl)-2-(2-methoxy-ethoxy)ethyl)-5-methyl-3-((S)-2-oxopyrrolidin-3-yl)-6-(I H-pyrazol-1-yl)thieno[2,3-d]pyrimidine-2,4(1H,3H)-dione], in experiment [1], the IC50 was in the range of 10 to 100 nM. Moreover, the IC90 in [2], in experiment [3], in experiment [4], in experiment [5], in experiment [8] and in experiment [9] was greater than 50 µg/mL throughout. Further, the IC90 in experiment [10] and in experiment [12] was greater than 50 µg/mL each time. For the same compound, in experiment [6], the pest or weed control at 50 ppm was 25 to 49%. Moreover, the “Barley Powdery Mildew Control at 10 ppm” value in [11] was “D (provided a compound having <25% control of barley powdery mildew)”. In addition, the MIC in experiment [13], in experiment [14] and in [15] was 2.1 to 4 µg/mL (≈ 3.77 to 7.17 µM) each time.
Turning to `COCCO[C@@H](Cn1c(=O)n([C@H]2CCN(C)C2=O)c(=O)c2c(C)c(-n3cccn3)sc21)c1cc(F)ccc1OC` [Compound I-43, 1-((R)-2-(5-fluoro-2-methoxyphenyl)-2-(2-methoxy-ethoxy)ethyl)-5-methyl-3-((S)-1-methyl-2-oxopyrrolidin-3-yl)-6-(1H-pyrazol-1-yl)thieno[2,3-d]pyrimidine-2,4(1H,3H)-dione], the IC50 in [1] lay within 10 to 100 nM. The IC90 in experiment [2], in experiment [3], in [4], in [5], in experiment [8] and in experiment [9] was greater than 50 µg/mL in each case. Besides, the IC90 in experiment [10] and in experiment [12] was greater than 50 µg/mL each time. For the same compound, the pest or weed control at 50 ppm in experiment [6] lay within 70 to 84%. Moreover, the “Barley Powdery Mildew Control at 10 ppm” value in [11] was “D (provided a compound having <25% control of barley powdery mildew)”. Moreover, the MIC in experiment [13], in [14] and in experiment [15] was 2.1 to 4 µg/mL (≈ 3.67 to 7 µM) in each case.
